Test results reported in ChEMBL document CHEMBL1143325 (Bioorg Med Chem, 2009).

Tests used:
[1] = molecular target: Carbonic anhydrase 5A, mitochondrial (Homo sapiens, UniProt P35218)
Carbonic anhydrase 3 = Carbonic anhydrase 3 (Homo sapiens, UniProt P07451)
Carbonic anhydrase 6 = Carbonic anhydrase 6 (Homo sapiens, UniProt P23280)
Carbonic anhydrase 9 = Carbonic anhydrase 9 (Homo sapiens, UniProt Q16790)
Carbonic anhydrase 13 = Carbonic anhydrase 13 (Mus musculus, UniProt Q9D6N1)
Carbonic anhydrase 4 = Carbonic anhydrase 4 (Homo sapiens, UniProt P22748)
Carbonic anhydrase 2 = Carbonic anhydrase 2 (Homo sapiens, UniProt P00918)
[2] = molecular target: Carbonic anhydrase 5B, mitochondrial (Homo sapiens, UniProt Q9Y2D0)
Carbonic anhydrase 7 = Carbonic anhydrase 7 (Homo sapiens, UniProt P43166)
Carbonic anhydrase 14 = Carbonic anhydrase 14 (Homo sapiens, UniProt Q9ULX7)
Chain of Carbonic anhydrase 14 (Q9ULX7 whole entry): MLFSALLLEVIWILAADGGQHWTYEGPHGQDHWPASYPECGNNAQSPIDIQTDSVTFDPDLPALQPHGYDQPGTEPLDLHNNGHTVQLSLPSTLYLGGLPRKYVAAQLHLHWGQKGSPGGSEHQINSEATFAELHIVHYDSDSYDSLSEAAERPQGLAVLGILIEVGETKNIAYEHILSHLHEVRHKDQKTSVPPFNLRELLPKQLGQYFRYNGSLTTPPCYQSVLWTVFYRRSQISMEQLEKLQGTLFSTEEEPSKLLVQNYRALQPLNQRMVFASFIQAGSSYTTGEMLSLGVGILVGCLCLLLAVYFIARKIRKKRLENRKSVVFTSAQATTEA

Chain of Carbonic anhydrase 3 (P07451 whole entry): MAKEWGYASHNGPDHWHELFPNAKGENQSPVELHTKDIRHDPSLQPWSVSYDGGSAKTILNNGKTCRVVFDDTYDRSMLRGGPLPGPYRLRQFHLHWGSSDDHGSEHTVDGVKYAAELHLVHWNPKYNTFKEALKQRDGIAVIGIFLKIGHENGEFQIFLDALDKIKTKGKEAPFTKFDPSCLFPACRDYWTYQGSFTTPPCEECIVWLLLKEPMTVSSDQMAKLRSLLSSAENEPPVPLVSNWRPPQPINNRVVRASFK
Chain of Carbonic anhydrase 13 (Q9D6N1 whole entry): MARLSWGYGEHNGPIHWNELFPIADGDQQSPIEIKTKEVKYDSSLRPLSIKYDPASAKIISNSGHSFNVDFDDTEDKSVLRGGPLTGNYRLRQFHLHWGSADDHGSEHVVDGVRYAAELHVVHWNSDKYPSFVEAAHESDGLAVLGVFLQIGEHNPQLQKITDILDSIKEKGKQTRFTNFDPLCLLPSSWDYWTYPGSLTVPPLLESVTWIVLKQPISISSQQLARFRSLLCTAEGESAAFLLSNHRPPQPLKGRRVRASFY
Chain of Carbonic anhydrase 5B, mitochondrial (Q9Y2D0 whole entry): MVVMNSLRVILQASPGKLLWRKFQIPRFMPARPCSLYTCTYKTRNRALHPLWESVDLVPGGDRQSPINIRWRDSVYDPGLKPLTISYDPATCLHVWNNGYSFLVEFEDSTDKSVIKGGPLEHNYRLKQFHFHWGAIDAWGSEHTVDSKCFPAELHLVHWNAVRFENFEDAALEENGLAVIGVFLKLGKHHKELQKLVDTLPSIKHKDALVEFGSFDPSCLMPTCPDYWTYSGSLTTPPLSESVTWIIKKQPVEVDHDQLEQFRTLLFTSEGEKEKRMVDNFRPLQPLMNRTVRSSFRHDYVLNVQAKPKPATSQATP
Chain of Carbonic anhydrase 7 (P43166 whole entry): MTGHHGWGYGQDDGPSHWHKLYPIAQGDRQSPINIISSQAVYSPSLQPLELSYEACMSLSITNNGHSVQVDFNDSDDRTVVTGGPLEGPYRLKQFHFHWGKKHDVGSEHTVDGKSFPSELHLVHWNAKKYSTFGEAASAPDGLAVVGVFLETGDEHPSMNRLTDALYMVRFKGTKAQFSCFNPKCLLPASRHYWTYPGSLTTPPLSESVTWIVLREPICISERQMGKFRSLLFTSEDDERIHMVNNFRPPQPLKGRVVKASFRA
Chain of Carbonic anhydrase 6 (P23280 whole entry): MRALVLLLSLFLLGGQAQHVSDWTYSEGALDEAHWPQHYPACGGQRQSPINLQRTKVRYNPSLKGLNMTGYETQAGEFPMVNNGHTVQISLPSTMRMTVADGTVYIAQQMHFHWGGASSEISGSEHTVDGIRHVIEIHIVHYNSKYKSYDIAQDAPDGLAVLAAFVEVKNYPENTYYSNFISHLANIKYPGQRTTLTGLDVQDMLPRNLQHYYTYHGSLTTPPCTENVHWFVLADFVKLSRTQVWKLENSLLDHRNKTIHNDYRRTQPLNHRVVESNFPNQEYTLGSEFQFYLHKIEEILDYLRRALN
Chain of Carbonic anhydrase 4 (P22748 whole entry): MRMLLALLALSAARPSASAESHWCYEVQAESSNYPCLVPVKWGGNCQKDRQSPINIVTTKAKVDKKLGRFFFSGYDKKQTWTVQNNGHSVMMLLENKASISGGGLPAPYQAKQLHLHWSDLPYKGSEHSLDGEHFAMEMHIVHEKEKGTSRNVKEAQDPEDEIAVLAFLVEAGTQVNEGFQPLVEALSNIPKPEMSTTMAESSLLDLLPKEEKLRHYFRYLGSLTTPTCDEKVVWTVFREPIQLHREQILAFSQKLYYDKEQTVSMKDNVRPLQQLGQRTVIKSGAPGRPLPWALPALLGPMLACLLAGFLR
Chain of Carbonic anhydrase 5A, mitochondrial (P35218 whole entry): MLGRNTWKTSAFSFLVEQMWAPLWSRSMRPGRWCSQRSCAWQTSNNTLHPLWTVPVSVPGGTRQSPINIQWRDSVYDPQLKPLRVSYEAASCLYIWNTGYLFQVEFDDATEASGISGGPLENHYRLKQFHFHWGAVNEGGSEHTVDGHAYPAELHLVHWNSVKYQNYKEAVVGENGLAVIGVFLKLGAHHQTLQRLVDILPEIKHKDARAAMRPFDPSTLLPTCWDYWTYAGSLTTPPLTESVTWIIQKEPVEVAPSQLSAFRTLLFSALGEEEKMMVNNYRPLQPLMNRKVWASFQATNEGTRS

| Structure (SMILES) | Ki [1] [µM] | Ki (Carbonic anhydrase 3) [µM] | Ki (Carbonic anhydrase 6) [µM] | Ki (Carbonic anhydrase 9) [µM] | Ki (Carbonic anhydrase 13) [µM] | Ki (Carbonic anhydrase 4) [µM] | Ki (Carbonic anhydrase 2) [µM] | Ki [2] [µM] | Ki (Carbonic anhydrase 7) [µM] | Ki (Carbonic anhydrase 14) [µM] |
| --- | --- | --- | --- | --- | --- | --- | --- | --- | --- | --- |
| NS(=O)(=O)c1cc(C2(O)NC(=O)c3ccccc32)ccc1Cl (configuration not stated) [CHLORTHALIDONE] | 0.917 | 11 | 1.35 | 0.023 | 0.015 | 0.196 | 0.138 | 0.009 | 0.0028 | 4.13 |
| NS(=O)(=O)c1cc(C(=O)O)c(NCc2ccco2)cc1Cl [FUROSEMIDE] | – | 3200 | – | – | – | – | – | – | – | – |
| CC1Cc2ccccc2N1NC(=O)c1ccc(Cl)c(S(N)(=O)=O)c1 (configuration not stated) [INDAPAMIDE] | – | 230 | – | – | – | – | – | – | – | – |
